Measurements as given in patent publication US6809091B1, “Substances capable of inducing apoptosis” (Takara Bio Inc., priority 1998, dated 2004).

Key:
human IL-10 = test: cytokine production in DSEK cells, ELISA; format: cell-based; conditions: DSEK cell incubation, supernatant every 24 hours
Protocol: (§1) Now, in the DSEK cell incubation, 150 μl/well of the supernatant liquid of the medium were recovered every 24 hours and influence of 4-hydroxy-2-cyclopenten-1-one or 4,5-dihydroxy-2-pentenal on the production of cytokines (human TGF-β, human FGF-β, human IL-1α and human IL-10) was measured using an ELISA-kit specific to each of the cytokine (the kit manufactured by INTERGEN or human FGF-β and human IL-10; and the kit manufactured by Promega for human IL-1α and human TGF-β).

[1] = system: hIGF-1 production in Hs68 cells; test: induction of hIGF-1 production, ELISA; format: cell-based, human; conditions: for time at which the inducing activity of the hIGF production became maximum: 100 μM or more
Protocol: Hs 68 cells (ATCC CRL-1635) which were human […] were incubated on a D-MEM medium (manufactured by Gibco BRL) containing 10% of fetal bovine serum (FBS manufactured by BioWhittaker) at 37° C. in the presence of 5% of CO2 until the cells were saturated in the culture medium, a trypsin-EDTA solution (manufactured by BioWhittaker) was suspended in the above medium to make 3×10^5 cells/ml and each 200 μl of the suspension were placed in each well of a 96-well microtiter plate. After five days from the incubation, the medium was discarded at the stage where the cells were almost saturated in the culture medium and a medium containing 5, 10, 20, 40, 100 or 200 μM of 4,5-dihydroxy-2-pentenal or 4-hydroxy-2-cyclopenten-1-one was added thereto. A time course of 96 hours was adopted and, every 24 hours, the supernatant liquid of the incubated medium was recovered and the influence of 4,5-dihydroxy-2-pentenal and 4-hydroxy-2-cyclopenten-1-one on the induction of hIGF-1 production in Hs68 cells was measured using an ELISA-kit for hIGF-1 (manufactured by Diagnostic System Labo).

[2] = system: NO production in RAW 264.7 cells; test: inhibition of NO production, NO2− by Griess reagent; format: cell-based
Protocol: (1) RAW 264.7 cells (ATCC TIB 71) were suspended to an extent of 3×10^5 cells/ml in an Eagle's medium modified by Dulbecco (manufactured by BioWhittaker; 12-917F) containing 10% fetal bovine serum (manufactured by Gibco), no Phenol Red and 2 mM of L-glutamine (manufactured by Lifetech Oriental; 25030-149) and each 500 μl of the suspension were added to each well of a 48-well microtiter plate and incubated at 37° C. for 12 hours in the presence of 5% carbon dioxide gas. To the well were added 10 μl of a 50 μg/ml lipopolysaccharide (LPS; manufactured by Sigma, L-2012) or each 10 μl of a 2.5 μg/ml of LPS and a 500 units/ml of interferon γ (manufactured by Genzyme; code MG-IFN), then 10 μl of a 1000, 500 or 250 μM aqueous solution of 2-(trans-3,4-dihydroxy-1-butenyl)-4-(trans-2-formylvinyl)-1,3-dioxolane were added, the mixture was incubated for 18 hours more and the NO2^− concentration generated by oxidation of NO in the medium was measured. Incidentally, a section to which LPS and interferon γ were not added and a section to which 2-(trans-3,4-dihydroxy-1-butenyl)-4-(trans-2-formylvinyl)-1,3-dioxolane was not added were prepared as controls.
After the above incubation, 100 μl of a 4% Griess reagent (manufactured by Sigma; G4410) were added to 100 μl of the medium, the mixture was allowed to stand at room temperature for 15 minutes and the absorbance at 490 nm was measured. From a calibration curve prepared by NaNO2 of known concentrations dissolved in the above medium, the NO2^− concentration in the medium was calculated. All measurements were conducted in three series.

RAW 264.7 cells = test: cell growth in the NO production test; format: cell-based; conditions: final concentration of 10 μM
human TGF-β = test: cytokine production in DSEK cells, ELISA; format: cell-based; conditions: DSEK cell incubation, supernatant every 24 hours
Protocol: as §1

HL-60 cells = test: measurement of apoptosis cells using FACScan; format: cell-based, human; conditions: HL-60, 24 hours and 48 hours
Protocol: (2) HL-60 cells which were incubated on an RPMI 1640 medium containing 10% of fetal bovine serum processed at 56° C. for 30 minutes were suspended in an RPMI 1640 medium to make 2.5×10^5 cells/5 ml. […]

SMILES	Inducing Activity of the hIGF-1 Production ([1]; 40 μM, 24 hours)	Inducing Activity of the hIGF-1 Production ([1]; 40 μM, 48 hours)	Inducing Activity of the hIGF-1 Production ([1]; 40 μM, 72 hours)	Inducing Activity of the hIGF-1 Production ([1]; 40 μM, 96 hours)	time at which the inducing activity of the hIGF production became maximum [1]	Inducing Activity of the hIGF-1 Production ([1]; 100 μM, 24 hours)	Inducing Activity of the hIGF-1 Production ([1]; 100 μM, 48 hours)	Inducing Activity of the hIGF-1 Production ([1]; 100 μM, 72 hours)	Inducing Activity of the hIGF-1 Production ([1]; 100 μM, 96 hours)	Inducing Activity of the hIGF-1 Production ([1]; 200 μM, 24 hours)	Inducing Activity of the hIGF-1 Production ([1]; 200 μM, 48 hours)	Inducing Activity of the hIGF-1 Production ([1]; 200 μM, 72 hours)	Inducing Activity of the hIGF-1 Production ([1]; 200 μM, 96 hours)	also measured
O=CC=CC(O)CO (single isomer, unassigned) [4,5-dihydroxy-2-pentenal, trans-4,5-dihydroxy-2-pentenal]	0 ng/mL	0 ng/mL	0 ng/mL	0 ng/mL	24 h	15.3 ng/mL	10.0 ng/mL	5.2 ng/mL	4.6 ng/mL	11.3 ng/mL	11.1 ng/mL	9.9 ng/mL	4.5 ng/mL	production of human IL-10 (human IL-10): activated
O=C/C=C/C1COC(/C=C/C(O)CO)O1 (stereo not drawn) [2-(trans-3,4-dihydroxy-1-butenyl)-4-(trans-2-formylvinyl)-1,3-dioxolane]														induction of NO production by LPS ([2]; 18 hours): inhibited; induction of NO production by LPS and interferon γ ([2]; 18 hours): inhibited; inhibition at 10 µM ([2]; Mus musculus, RAW264.7, final concentration of 10 μM, read-out: inhibiting activity for NO production): ~50%; inhibition of cell growth (RAW 264.7 cells): no inhibition of cell growth was noted at all
Nc1nc2c(ncn2C2C=CC(=O)C2)c(=O)[nH]1 (stereo not shown) [4-(9-guaninyl)-2-cyclopenten-1-one]														production of human TGF-β (human TGF-β): inhibited; final concentration at which apoptosis cells were confirmed (HL-60 cells): ≥ 20 µM
O=C1C=CC(O)C1 (stereo not shown) [4-hydroxy-2-cyclopenten-1-one]	0 ng/mL	0 ng/mL	0 ng/mL	0 ng/mL	24 h	39.9 ng/mL	10.0 ng/mL	9.6 ng/mL	4.4 ng/mL	37.9 ng/mL	10.4 ng/mL	9.9 ng/mL	4.2 ng/mL	hIGF-1 inducing activity [1]: stronger than that of 4,5-dihydroxy-2-pentenal
